These results are taken from US9480655B2, “Solid pharmaceutical dosage form of dolutegravir” (ratiopharm GmbH, priority 2013, dated 2016).

Structures are written as SMILES. Where a name gives a salt, the structure may show the parent alone. Read-outs that look alike come from different tables or passages of the source.

A short description of this data set: Solubility of dolutegravir and its salts in aqueous media. The data set is classed as physicochemical. Here is the method:
At an increasing pH, for example to pH 6.8 in 50 mM KH2PO4 the solubility of the sodium salt of dolutegravir slightly increases but the salt still remains very slightly soluble (1-0.1 mg/ml), only. Due to this very low solubility of the active ingredient the tablets known from WO2006/116764 are of little practical use because the active ingredient will hardly dissolve in the intestine resulting in a low bioavailability.
Dolutegravir may be present in the solid pharmaceutical dosage form in its non-salt form or any pharmaceutically acceptable salt or solvate thereof. Suitable pharmaceutically acceptable salts are known to the skilled person. For example, dolutegravir may be present as alkali metal salt, such as dolutegravir sodium or dolutegravir potassium. The potassium salt being preferred.

On to `C[C@@H]1CCO[C@H]2Cn3cc(C(=O)NCc4ccc(F)cc4F)c(=O)c(O)c3C(=O)N12` [sodium salt of dolutegravir], for which the solubility is, setting by setting: (aqueous buffer, pH 6.8 in 50 mM KH2PO4, read-out: solubility) 100 to 1000 µg/mL; (simulated gastric fluid, 0.1 N HCl (pH 1.2), read-out: solubility) below 100 µg/mL.

For `C[C@@H]1CCO[C@H]2Cn3cc(C(=O)NCc4ccc(F)cc4F)c(=O)c(O)c3C(=O)N12` [potassium salt], the “solubility relative to the sodium salt” value is “more soluble than the sodium salt”.

In the case of `C[C@@H]1CCO[C@H]2Cn3cc(C(=O)NCc4ccc(F)cc4F)c(=O)c(O)c3C(=O)N12` [Dolutegravir, (4R,12aS)-N-(2,4-difluorobenzyl)-7-hydroxy-4-methyl-6,8-dioxo-3,4,6,8,12,12a-hexahydro-2H-pyrido[1′,2′:4,5]pyrazino[2,1-b][1,3]oxazine-9-carboxamide], for the setting “medium not stated”, the solubility result is reported as “practically insoluble”.
